Measurements published in patent publication US9067944B2, “Process for the preparation of anagrelide and analogues thereof” (SHIRE LLC, priority 2010, dated 2015).
Like-named read-outs stand apart in the source and are kept apart here.

How the values were obtained:
[1] = radiolabeled base, monkeys; cited from earlier work
[2] = solid form; cited from earlier work
[3] = radiolabeled base, humans; cited from earlier work
[4] = solubility of the tosylate salt; type: physicochemical; settings: crystalline tosylate salt

SMILES | absorption into blood plasma [1] | aqueous solubility [2] | absorption into blood plasma [3] | solubility [4]
O=C1CN2Cc3c(ccc(Cl)c3Cl)N=C2N1 [compound III, 6,7-dichloro-1,5-dihydroimidazo[2,1-b]quinazolin 2 (3H)-one] | complete absorption | low | complete absorption | 
CC1(C)C(=O)NC2=Nc3ccc(Cl)c(Cl)c3CN21.Cc1ccc(S(=O)(=O)O)cc1 [3,3-dimethylanagrelide tosylate, 3,3-Dimethylanagrelide Tosylate] |  |  |  | soluble
